Test [1] has as its system rats. Conditions: icv administration (Thorsell et al. Neurosci. Lett. 2002); cited from earlier work.
For test [2], the target named is T1, recombinant human NPY Y2 receptors (Homo sapiens, UniProt P49146).
T1 construct: expressed in transfected cells; host or cells: CHO-C4 cells (membrane preparation)
T1 sequence (P49146 1-381): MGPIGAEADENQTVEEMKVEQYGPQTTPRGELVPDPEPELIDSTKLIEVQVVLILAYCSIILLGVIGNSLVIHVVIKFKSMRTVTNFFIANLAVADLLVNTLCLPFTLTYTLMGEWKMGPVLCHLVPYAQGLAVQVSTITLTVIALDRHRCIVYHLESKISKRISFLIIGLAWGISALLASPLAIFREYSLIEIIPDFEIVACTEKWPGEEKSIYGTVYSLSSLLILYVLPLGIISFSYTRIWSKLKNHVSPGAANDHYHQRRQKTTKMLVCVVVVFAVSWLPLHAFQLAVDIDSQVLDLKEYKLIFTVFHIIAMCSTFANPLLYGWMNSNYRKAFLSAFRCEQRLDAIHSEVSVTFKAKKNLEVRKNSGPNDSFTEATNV
The experiment in a line: Scintillation proximity [35S]GTPγS binding assay (inhibition of 0.5 nM NPY-stimulated [35S]GTPγS binding). Conditions: 10 μM compound, membranes from CHO-C4 cells expressing recombinant human NPY Y2 receptors; for inhibition at 10 µM: read-out: [%] inhibiton at 10 μM. Type of test: biochemical. The procedure:
Preparation of Membranes: CHO-C4 cells expressing recombinant human NPY Y2 receptors were used to prepare membranes for the GTPγS assay. Cells were grown to 80-95% confluency on 15-cm (225 cm^2) tissue culture plates. After aspiration of the culture medium, cells were washed twice with 18 ml ice-cold phosphate-buffered saline (PBS), scraped off and suspended in 3 ml ice-cold PBS in pre-cooled centrifuge tubes. The dishes were rinsed with 2 ml ice-old PBS per dish and the washings were combined with the PBS cell suspension from above. Cells pooled from 5-7 dishes were centrifuged for 5 min at 10,000 rpm (12,000 g) in a Sorvall RC5B centrifuge using an SS34 rotor at […]. The cell pellet was resuspended in 5 ml ice-cold buffer (20 mM HEPES, 10 mM EDTA; pH 7.4) by vortexing (2-5 sec), homogenized using a Polytron (step 4 for 20-30 sec), and ice-cold buffer added to 25 ml. The suspension was centrifuged again for 20 min at 18,000 rpm (39,000 g) at 4° C. and the pellet resuspended in 5 ml ice-cold buffer (20 mM HEPES, 0.1 mM EDTA; pH 7.4) by vortexing (2-5 sec), homogenized with a Polytron (step 4 for 10 sec), and ice-cold buffer added to 25 ml. The suspension was centrifuged a third time for 20 min at 18,000 rpm (39,000 g) at 4° C. The pellet was resuspend in 1 ml ice-cold buffer (20 mM Hepes, 0.1 mM EDTA; pH 7.4) by vortexing (5-8 sec). Two to five resuspended pellets were combined and homogenized using a Polytron (step 4 for 15-25 sec). A small aliquot (20-50 μl) was removed for protein determination by the Coomassie Plus Protein Assay Reagent (Pierce) using BSA as standard. The membrane suspension was aliquoted in precooled (on dry ice) Eppendorf tubes (0.25-1 ml/tube affording approximately 0.5-2 mg of membrane protein/tube). The pellets were frozen and stored at −80° C.
Scintillation proximity [^35S]GTPγS binding assay: Frozen membranes from CHO-C4 cells expressing recombinant human NPY Y2 receptors (2 mg for four 96-well plates) were thawed on ice. Thawed membranes were pipetted into 10 ml of assay buffer (20 mM HEPES, 10 mM MgCl2, 100 mM NaCl, pH 7.4) and homogenized briefly using a Polytron. The final assay mixture was prepared in 96-well microtiter plates (Isoplate Wallac, Perkin Elmer). The composition of the assay mixtures in a final volume of 250 μl per well was as follows: 20 mM HEPES, 10 mM MgCl2, 100 mM NaCl, pH 7.4, 30 μM GDP, 1 mg/ml BSA (added fresh), 5 μg membrane protein, 1.5 mg Wheatgerm agglutinin SPA beads (Amersham), 0.45 nM [^35S]GTPγS (Amersham, SJ1308, 1000 Ci/mmol, stabilized solution), and the test compounds (agonists and/or antagonists) at the appropriate concentrations. The samples were incubated at room temperature for 90 min by shaking, after which the SPA beads were sedimented by centrifugation in an Eppendorf 5804 centrifuge at 2700 rpm for 10 min at room temperature. After 60 min the plates were counted in a TopCount (Canberra). Basal [^35S]GTPγS binding was measured in the absence of agonist (NPY). Non-specific binding was measured in the presence of excess (10 μM) unlabelled GTPγS (Sigma). Nonspecific binding never exceeded 10% of basal binding and was thus not subtracted from the experimental data. Antagonists were tested for the inhibition of 0.5 nM NPY-stimulated [^35S]GTPγS binding. Antagonist inhibition curves were analyzed by non-linear regression using GraphPad Prism software (Version 4.0, GraphPad Software Inc., CA, USA).
Antagonistic activity of compounds of the present invention was examined by the Scintillation proximity [^35S]GTPγS binding assay as described above (inhibition of 0.5 nM NPY-stimulated [^35S]GTPγS binding). The table below represents percentages of inhibition at a concentration of 10 μM.
A general note: SPA uses beads or plates that emit light when radiolabelled molecules are held near them.

Turning to `N=C(N)NCCC[C@H](NC(=O)CC1(CC(=O)N2CCN(C3c4ccccc4NC(=O)c4ccccc43)CC2)CCCC1)C(=O)NCCn1c(=O)n(-c2ccccc2)n(-c2ccccc2)c1=O` (some centres unmarked) [BIIE0246], in test [1], the ethanol self-administration entry is recorded as “dose dependently reduced ethanol self-administration”.

Take `CCCC1(c2ccc(F)cc2)N=C(C)N(CC(=O)c2ccc(NC(=O)Nc3c(C)noc3C)cc2F)C1=O` (racemic) [Compound 11, (+/−)-1-(3,5-Dimethyl-isoxazol-4-yl)-3-(3-fluoro-4-{2-[4-(4-fluoro-phenyl)-2-methyl-5-oxo-4-propyl-4,5-dihydro-imidazol-1-yl]acetyl}-phenyl)-urea]: the inhibition at 10 µM in test [2] was 96%.

On to `CCCC1(c2ccccc2)N=C(C)N(CC(=O)c2ccc(NC(=O)Nc3c(C)noc3C)cc2F)C1=O` (racemic) [Compound 10, (+/−)-1-(3,5-Dimethyl-isoxazol-4-yl)-3-{3-fluoro-4-[2-(2-methyl-5-oxo-4-phenyl-4-propyl-4,5-dihydro-imidazol-1-yl)-acetyl]-phenyl}-urea], for which the inhibition at 10 µM in test [2] worked out at 97%.

As to `CC1=NC(c2ccccc2)(c2ccccc2)C(=O)N1CC(=O)c1ccc(NC(=O)Cc2ccccc2C)cc1` [Compound 22, N-{4-[2-(2-Methyl-5-oxo-4,4-diphenyl-4,5-dihydro-imidazol-1-yl)-acetyl]-phenyl}-2-o-tolyl-acetamide], the inhibition at 10 µM in test [2] turned out to be 55%.

As for `CCCC1(c2ccc(F)cc2)N=C(C)N(CC(=O)c2ccc(NC(=O)Cc3c(C)noc3C)cc2F)C1=O` (racemic) [Compound 17], the “[%] inhibiton at 10 μM” value in test [2] was 87%.
